For three molecules, IC50 results are on record in patent US11926616B2, “Aminopyrazine diol compounds as PI3K-γ inhibitors” (Incyte Corporation, priority 2018, dated 2024).

The target in assay [1] is PI3Kγ (p110γ) Recombinant Human Protein (Homo sapiens (Human), UniProt P48736). In words: PI3K-γ Scintillation Proximity Assay. Conditions: 20 μM PIP2, 2 μM ATP, 13 nM PI3Kγ, 120 min, room temperature. Format: biochemical. Summed up:
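Recombinant human p110γ (13 nM) with 20 μM PIP2, 2 μM ATP plus [γ-33P]ATP in 20 mM MOPS pH 6.7, MgCl2, DTT, CHAPS, 2% DMSO, 120 min at room temperature. Stopped with EDTA/WGA SPA beads; scintillation counting. IC50 from curve fitting of % solvent-control activity against log inhibitor concentration.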

Assay [2] deals with PI3Kδ (p110δ/p85α) Recombinant Human Protein (Homo sapiens (Human), UniProt O00329). The assay can be described thus: PI3Kδ Scintillation Proximity Assay. Format: biochemical. The note with it: 20 μM PIP2, 2 μM ATP, 3.4 nM PI3Kδ, 120 min, room temperature. Summed up: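 Radiometric SPA with recombinant human p110δ/p85α (3.4 nM), 20 μM PIP2 and 2 μM ATP plus [γ-33P]ATP in MOPS pH 6.7, MgCl2, DTT, CHAPS, 2% DMSO; 120 min at room temperature, quenched with EDTA/WGA beads. IC50 from percent-of-solvent-control versus log concentration curves.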

In assay [3] the test system is Phosphorylated Ribosomal Protein S6 (RPS6) in THP-1 cells. In words: THP-1 RPS6 ELISA Assay. Format: cell-based, Human. Conditions: THP-1 cells, serum starved, 2 hours compound, 10 nM MCP-1 for 15 minutes, Phospho-RPS6 ELISA, read-out: PI3Kγ_THP1_RPS6_ELISA IC50.

Structures are written as SMILES. Like-named read-outs stand apart in the source and are kept apart here.

Chain of PI3Kδ (p110δ/p85α) Recombinant Human Protein (O00329 whole entry): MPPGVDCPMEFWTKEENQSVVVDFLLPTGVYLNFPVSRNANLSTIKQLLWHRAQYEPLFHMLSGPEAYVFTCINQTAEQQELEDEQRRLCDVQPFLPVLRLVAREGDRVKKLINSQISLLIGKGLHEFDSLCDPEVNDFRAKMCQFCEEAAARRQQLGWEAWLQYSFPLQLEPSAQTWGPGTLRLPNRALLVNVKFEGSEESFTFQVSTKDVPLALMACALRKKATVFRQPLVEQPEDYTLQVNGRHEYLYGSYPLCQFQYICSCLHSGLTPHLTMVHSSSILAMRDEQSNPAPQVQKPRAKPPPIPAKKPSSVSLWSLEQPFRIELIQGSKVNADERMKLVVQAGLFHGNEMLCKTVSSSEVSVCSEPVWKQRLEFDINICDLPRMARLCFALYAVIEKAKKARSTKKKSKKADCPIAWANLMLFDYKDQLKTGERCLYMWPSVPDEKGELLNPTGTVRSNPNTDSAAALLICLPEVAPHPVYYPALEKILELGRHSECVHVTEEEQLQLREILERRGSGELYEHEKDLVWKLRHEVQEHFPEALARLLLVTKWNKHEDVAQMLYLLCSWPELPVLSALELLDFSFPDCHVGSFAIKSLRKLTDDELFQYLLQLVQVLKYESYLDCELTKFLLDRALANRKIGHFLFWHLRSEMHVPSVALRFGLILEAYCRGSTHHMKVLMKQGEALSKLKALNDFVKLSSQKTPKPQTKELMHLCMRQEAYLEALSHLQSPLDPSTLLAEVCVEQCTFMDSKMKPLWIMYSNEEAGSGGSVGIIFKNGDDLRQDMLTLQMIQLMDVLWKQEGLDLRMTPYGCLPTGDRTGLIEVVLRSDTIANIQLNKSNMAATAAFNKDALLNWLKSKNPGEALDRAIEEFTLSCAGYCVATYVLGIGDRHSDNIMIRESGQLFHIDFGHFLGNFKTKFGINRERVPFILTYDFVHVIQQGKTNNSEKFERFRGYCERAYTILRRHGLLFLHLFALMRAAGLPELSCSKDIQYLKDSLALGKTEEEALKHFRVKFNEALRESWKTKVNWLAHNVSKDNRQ
Chain of PI3Kδ (p110δ/p85α) Recombinant Human Protein (P27986 whole entry partner): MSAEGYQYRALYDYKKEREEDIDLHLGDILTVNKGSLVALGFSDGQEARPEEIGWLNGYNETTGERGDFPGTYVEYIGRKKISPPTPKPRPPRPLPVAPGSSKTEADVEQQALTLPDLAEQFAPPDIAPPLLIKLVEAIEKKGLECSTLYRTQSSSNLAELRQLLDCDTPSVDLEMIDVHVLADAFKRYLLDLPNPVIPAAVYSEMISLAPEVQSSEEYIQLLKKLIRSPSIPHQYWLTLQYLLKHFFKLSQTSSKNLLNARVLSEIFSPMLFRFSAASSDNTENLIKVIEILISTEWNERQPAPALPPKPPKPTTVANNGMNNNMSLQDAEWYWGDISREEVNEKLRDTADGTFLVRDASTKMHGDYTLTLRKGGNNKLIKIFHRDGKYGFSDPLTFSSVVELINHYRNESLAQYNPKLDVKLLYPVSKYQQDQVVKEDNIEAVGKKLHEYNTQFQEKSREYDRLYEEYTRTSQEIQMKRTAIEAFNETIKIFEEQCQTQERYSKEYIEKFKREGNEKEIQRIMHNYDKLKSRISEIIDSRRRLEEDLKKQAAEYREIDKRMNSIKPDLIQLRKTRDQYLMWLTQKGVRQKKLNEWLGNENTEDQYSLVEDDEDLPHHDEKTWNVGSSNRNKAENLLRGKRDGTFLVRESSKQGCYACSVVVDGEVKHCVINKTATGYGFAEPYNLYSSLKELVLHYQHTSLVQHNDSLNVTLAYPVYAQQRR
Chain of PI3Kγ (p110γ) Recombinant Human Protein (P48736 whole entry): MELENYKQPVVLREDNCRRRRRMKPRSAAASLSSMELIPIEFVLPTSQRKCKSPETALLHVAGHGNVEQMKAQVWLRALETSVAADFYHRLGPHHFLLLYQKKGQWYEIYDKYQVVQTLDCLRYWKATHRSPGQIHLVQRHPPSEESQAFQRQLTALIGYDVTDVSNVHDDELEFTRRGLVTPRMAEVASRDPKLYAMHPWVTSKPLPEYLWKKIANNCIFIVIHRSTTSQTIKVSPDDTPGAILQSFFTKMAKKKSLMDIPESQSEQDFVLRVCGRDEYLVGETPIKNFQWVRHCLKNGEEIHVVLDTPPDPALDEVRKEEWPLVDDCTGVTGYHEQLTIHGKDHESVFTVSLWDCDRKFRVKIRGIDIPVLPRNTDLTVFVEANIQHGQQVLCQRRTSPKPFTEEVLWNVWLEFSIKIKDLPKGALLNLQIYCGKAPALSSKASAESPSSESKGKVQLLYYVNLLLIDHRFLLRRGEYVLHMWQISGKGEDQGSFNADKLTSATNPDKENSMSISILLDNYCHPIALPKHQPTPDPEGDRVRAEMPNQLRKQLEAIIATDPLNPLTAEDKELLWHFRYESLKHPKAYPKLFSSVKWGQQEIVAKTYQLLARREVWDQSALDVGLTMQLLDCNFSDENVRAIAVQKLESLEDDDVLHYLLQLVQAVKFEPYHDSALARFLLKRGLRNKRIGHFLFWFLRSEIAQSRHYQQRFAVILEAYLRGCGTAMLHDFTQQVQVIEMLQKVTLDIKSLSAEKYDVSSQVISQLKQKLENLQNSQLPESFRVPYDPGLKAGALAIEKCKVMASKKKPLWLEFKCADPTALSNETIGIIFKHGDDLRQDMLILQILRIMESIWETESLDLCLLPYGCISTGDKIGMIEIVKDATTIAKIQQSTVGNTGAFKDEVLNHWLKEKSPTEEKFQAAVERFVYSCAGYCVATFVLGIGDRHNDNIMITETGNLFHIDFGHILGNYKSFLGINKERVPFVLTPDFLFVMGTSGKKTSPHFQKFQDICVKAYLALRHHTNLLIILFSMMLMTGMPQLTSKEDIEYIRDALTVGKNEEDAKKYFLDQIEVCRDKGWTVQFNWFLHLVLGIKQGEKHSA

`Cc1ccc(C(O)(CO)C(F)(F)F)cc1-c1cnc(N)c(C2CN(S(=O)(=O)c3ccn(C)n3)C2)n1` (stereo not drawn) [Example 23, 2-(3-(5-Amino-6-(1-((1-methyl-1H-pyrazol-3-yl)sulfonyl)azetidin-3-yl)pyrazin-2-yl)-4-methylphenyl)-3,3,3-trifluoropropane-1,2-diol]: the values for the IC50 in assay [1], in assay [2] and in assay [3] (Homo sapiens) were at most 100 nM, at most 500 nM and under 500 nM, respectively.

Consider `Cc1ccc([C@](O)(CO)C(F)F)cc1-c1cnc(N)c(C(=O)N2CCC[C@@H]2CO)n1` [Example 45, (3-Amino-6-(5-((S)-1,1-difluoro-2,3-dihydroxypropan-2-yl)-2-methylphenyl)pyrazin-2-yl)((R)-2-(hydroxymethyl)pyrrolidin-1-yl)methanone], for which the IC50 in assay [1] was at most 100 nM; in assay [2] it was under 2000 nM; in assay [3], under 500 nM.

Regarding `Cc1ccc(C(O)(CO)C(F)F)cc1-c1cnc(N)c(C(=O)NC2(C)CCOC2)n1` [Example 47, 3-amino-6-(5-((S)-1,1-difluoro-2,3-dihydroxypropan-2-yl)-2-methylphenyl)-N-(3-methyltetrahydrofuran-3-yl)pyrazine-2-carboxamide], the IC50 was at most 100 nM in assay [1], at most 100 nM in assay [2] and under 100 nM in assay [3] (Homo sapiens).
